From patent US5679680A, “α-substituted hydrazides having calpain inhibitory activity” (Warner-Lambert Company, priority 1995, dated 1997)

Key:
Thermolysin = target: T1, Thermolysin (Bacillus thermoproteolyticus, UniProt P00800); experiment: Thermolysin assay, casein substrate; type: biochemical
T1 construct: purchased Sigma P1512; host or cells: Bacillus thermoproteolyticus
Description: (§1) Selectivity of α-substituted Hydrazides: Calpain I and II were assayed as described in Example 1. One to 2 ng papain (papaya latex, Sigma, P3125), 1.25 μg trypsin (bovine pancreas, Sigma, T8003), 5 μg thermolysin (Bacillus thermoproteolyticus, Sigma, P1512) were assayed using 0.5 mg/mL casein as substrate in the microplate format (250 μL reaction volume), essentially a described by Buroker-Kilgore, M. and Wang K K W, Anal Biochem 1993;208: 387-392. Cathepsin B (0.002 unit, bovine spleen) was assayed with 50 mM MES (pH 5.5), 100 μM carbobenzoxy-Arg-Arg-4-methoxy-beta-naphthlamide (Cbz-Arg-Arg-MNA), inhibitor, and 2 mM DTT in 200 μL for 60 minutes at room temperature. Fifty-microliter aliquots were transferred to a fluorescence-compatible plate and then read with a Perkin-Elmer fluorometer LS-50B (excitation 340 nm and emission 425 nm). Calcineurin (bovine brain, Sigma) (5 μg, 0.8 unit) was assayed with 10 mM p-nitrophenyl phosphate in 1 mM DTT, 1 mM CaCl2, 1 mM MnCl2, […] calmodulin (CaM, if added), and 50 mM Tris-HCl (pH 7.4) at 25° C. for 60 minutes or more. Production of p-nitrophenol was monitored at 405 nm. Inhibition of these proteases are presented as IC50.

Human Calpain II = target: T2, Human Calpain II (Homo sapiens, UniProt P17655); experiment: Calpain II activity, casein substrate, Coomassie microplate assay; type: biochemical; conditions: casein 0.5 mg/mL (Table I)
T2 sequence (P17655 1-700): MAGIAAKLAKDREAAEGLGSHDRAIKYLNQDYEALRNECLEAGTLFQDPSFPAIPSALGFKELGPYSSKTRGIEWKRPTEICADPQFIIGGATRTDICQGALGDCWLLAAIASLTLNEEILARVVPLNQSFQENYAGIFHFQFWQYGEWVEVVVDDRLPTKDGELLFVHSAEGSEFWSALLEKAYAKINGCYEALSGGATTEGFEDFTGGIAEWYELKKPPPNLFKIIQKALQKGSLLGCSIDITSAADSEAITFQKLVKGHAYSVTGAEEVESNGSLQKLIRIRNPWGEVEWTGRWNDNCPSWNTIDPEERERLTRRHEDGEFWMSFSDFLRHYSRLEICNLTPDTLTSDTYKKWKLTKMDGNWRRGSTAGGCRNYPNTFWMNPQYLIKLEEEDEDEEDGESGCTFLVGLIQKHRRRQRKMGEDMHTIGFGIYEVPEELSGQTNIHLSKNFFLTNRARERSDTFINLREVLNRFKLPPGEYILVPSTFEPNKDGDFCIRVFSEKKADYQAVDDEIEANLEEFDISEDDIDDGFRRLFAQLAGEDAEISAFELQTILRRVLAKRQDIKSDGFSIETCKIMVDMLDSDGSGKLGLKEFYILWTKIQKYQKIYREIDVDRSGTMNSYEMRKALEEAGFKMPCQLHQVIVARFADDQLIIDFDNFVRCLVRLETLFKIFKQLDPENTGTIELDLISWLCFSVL
T2 sequence (P04632 1-268 partner): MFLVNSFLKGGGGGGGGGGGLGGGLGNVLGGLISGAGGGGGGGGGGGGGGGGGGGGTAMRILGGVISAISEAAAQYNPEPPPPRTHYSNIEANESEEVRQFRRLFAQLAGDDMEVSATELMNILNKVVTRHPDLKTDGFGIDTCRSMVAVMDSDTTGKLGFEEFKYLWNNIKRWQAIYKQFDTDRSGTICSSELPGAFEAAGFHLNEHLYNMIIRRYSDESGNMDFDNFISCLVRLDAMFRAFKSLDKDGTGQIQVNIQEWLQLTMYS
Description: Assay of calpain activity: Calpain I was purified from human erythrocytes as described by Wang K K W, Roufogalis B D, and Villalobo A, Arch Biochem Biophys 1988;267: 317-327. Calpain activity was assayed in a 96-well microplate format (Buroker-Kilgore M and Wang K K W, Anal Bio Chem 1993;208: 387-392). In 250 μL of reaction mixture, substrate casein (0.5 mg/mL) was incubated with 0.01 unit (80-120 ng) calpain I, 20 mM dithiothreitol (DTT), 50 mM Tris-HCl (pH 7.4 at 25° C.) and 4 mM CaCl2 at 25° C. for 60 minutes. Two 100-μL aliquots were taken for Coomassie blue G250 binding analysis to quantify the remaining casein.
Compound concentrations that cause 50% inhibition (IC50) are as shown (Table I). The second rate of inactivation of calpain I for 2 compounds are also shown.
as §1

[1] = tested on: Fetal Rat Cerebrocortical Cultures; experiment: Oxygen/glucose deprivation induced LDH release from fetal rat cerebrocortical cultures; type: cell-based
Papain = target: T3, Papain (Carica papaya, UniProt P00784); experiment: Papain assay, casein substrate; type: biochemical; conditions: 0.5 mg/mL casein
T3 construct: purchased Sigma P3125; host or cells: papaya latex
T3 sequence (P00784 134-345): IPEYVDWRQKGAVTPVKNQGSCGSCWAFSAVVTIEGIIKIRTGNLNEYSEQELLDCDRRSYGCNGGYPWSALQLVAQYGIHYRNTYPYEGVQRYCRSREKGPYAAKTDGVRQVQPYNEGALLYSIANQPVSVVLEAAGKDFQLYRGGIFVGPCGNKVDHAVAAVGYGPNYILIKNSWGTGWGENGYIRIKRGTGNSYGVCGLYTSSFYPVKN
Description: as §1

Calmodulin-calcineurin = target: T4, Calmodulin-calcineurin (Bos taurus, UniProt P48452); experiment: Calmodulin-calcineurin assay (p-nitrophenyl phosphate); type: biochemical, bovine; conditions: pH 7.4, 25° C., 60 minutes or more
T4 construct: purchased Sigma; host or cells: bovine brain
Description: as §1

Cathepsin B = target: T5, Cathepsin B (Bos taurus, UniProt P07688); experiment: Cathepsin B assay (Cbz-Arg-Arg-MNA substrate); type: biochemical, bovine; conditions: pH 5.5, 60 minutes, room temperature
T5 construct: Cathepsin B (0.002 unit, bovine spleen); from tissue; host or cells: bovine spleen
Description: as §1

Trypsin = target: T6, Trypsin (Bos taurus, UniProt P00760); experiment: Trypsin assay, casein substrate; type: biochemical, bovine; conditions: 0.5 mg/mL casein
T6 construct: purchased Sigma T8003; host or cells: bovine pancreas
T6 sequence (P00760 24-246): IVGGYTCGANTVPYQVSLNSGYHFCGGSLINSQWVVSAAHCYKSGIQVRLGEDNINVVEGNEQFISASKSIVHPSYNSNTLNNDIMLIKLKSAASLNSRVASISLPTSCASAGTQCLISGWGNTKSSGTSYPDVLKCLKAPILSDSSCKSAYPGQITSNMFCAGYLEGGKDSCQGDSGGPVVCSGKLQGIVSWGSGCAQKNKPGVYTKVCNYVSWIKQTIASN
Description: as §1

T1 sequence (P00800 233-548): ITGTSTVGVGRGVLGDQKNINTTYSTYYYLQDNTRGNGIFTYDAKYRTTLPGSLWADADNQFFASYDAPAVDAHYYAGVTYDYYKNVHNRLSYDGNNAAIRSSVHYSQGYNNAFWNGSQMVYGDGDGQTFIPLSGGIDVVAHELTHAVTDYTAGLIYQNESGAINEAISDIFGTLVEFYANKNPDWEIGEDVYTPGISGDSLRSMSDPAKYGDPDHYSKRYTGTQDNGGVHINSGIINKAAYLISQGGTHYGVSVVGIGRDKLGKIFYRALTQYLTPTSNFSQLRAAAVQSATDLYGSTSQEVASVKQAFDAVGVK

In the case of O=C(CCl)NN=c1[nH]c2ccccc2n(-c2ccccc2)c1=O [Example 5, 2-Chloro-acetic acid (3-oxo-4-phenyl-3,4-dihydro-1H-quinoxalin-2-ylidene)-hydrazide], the IC50 (Thermolysin) is reported as greater than 500 µM, the IC50 (Human Calpain II) is reported as 0.59 µM and the LDH release ([1]; Hypoxia/Hypoglycemia, mean ± SEM (6), p < 0.001 vs Hypoxia/Hypoglycemia alone (143.81 ± 9.72), Normoxia 46.13 ± 6.08) is reported as 57.27 ± 8.11 Unit/mL. For the same molecule, the “Resistance of neurons to oxygen/glucose deprivation” value ([1]; LDH release after 24 hours) was “enabled the neurons to resist the oxygen/glucose deprivation for longer”, the IC50 (Papain) was 5.6 µM and the IC50 (Calmodulin-calcineurin) was greater than 500 µM. The IC50 (Cathepsin B) was greater than 200 µM and the IC50 (Trypsin) was greater than 200 µM.
